Results reported in US20080125516A1, “Dispersible long-acting mold-proof polyurethanes or urethane adducts and mold-proof materials made thereof” (HEADWAY ADVANCED MATERIALS INC., priority 2006, published 2008).

Experiment: Solubility in solvents
Type: physicochemical

Measured: Solubility

COC(=O)Nc1nc2ccccc2[nH]1 [Unmodified Mold-Proof Agent, methy benzimidazol-2-ylcarbamate]
<0.3%: Dimethylformamide (DMF) | Ethyl acetate (EAC) | Methanol (ME) | Methyl-Ethyl Ketone (MEK) | N,N-dimethylacetamide (DMAC)
